Reference: patent publication US20190352276A1, “INHIBITORS OF BRUTON'S TYROSINE KINASE” (Joint Stock Company "Biocad", priority 2016, published 2019)
Read-outs that look alike come from different tables or passages of the source.

Columns and labels:
[1] = target: T1, recombinant Btk kinase enzyme (Homo sapiens, UniProt Q06187); assay: In vitro inhibition of Btk kinase activity (ADP-Glo); type: biochemical
T1 construct: purchased SignalChem B10-10H
Experimental: To assess Btk kinase activity described herein, SignalChem kinase system was used. Btk kinase activity was determined in the reaction between recombinant Btk kinase enzyme (SignalChem #B10-10H) and Poly (4:1 Glu, Tyr) peptide substrate in the presence of the inhibitor.
Staurosporine (Abcam Biochemicals, ab146588) was used as a reference inhibitor and 0.1% DMSO in the reaction buffer—as a negative control. The solution of 0.5 mg/mL peptide substrate and 50 &M ATP in the same buffer were added; the solution was incubated for 180 minutes at 37° C. To detect the amount of ATP taken up during the kinase reaction, the equivalent amount of ADP (from the ADP Glo Detection Kit (Promega, #V9101)) was used according to the protocol. The reaction mixture was equilibrated to room temperature. 25 µL of ADP-Glo Reagent were added into each well; the plate was incubated for 40 minutes. 50 μL of Kinase Detection Reagent were added; the plate was incubated for 30 minutes. The luminescence was measured with multimode plate reader (Tecan Infinite M200Pro, Switzerland). IC50 values were calculated using Magellan 7.2 software (Tecan, Switzerland) approximating experimental points by four-parameter logistic model with the optimization by Levenberg-Marquardt.

[2] = Chemical stability in artificial gastric fluid (SGF without enzymes); details: 10 μM in SGF without enzymes, pH=1.4, 37° C.
Experimental: The initial candidate solution (10 mM in DMSO) was diluted with the working solution of SGF to the concentration of 10 μm (test solution). The test solution was incubated in a dry block heater at 37° C. We determined peak areas of the compounds corresponding to the start of the test (before incubating) and the end of the test (after incubating in a dry block heater at 37° C.) by HPLC using Agilent1200 chromatograph (Agilent, USA). We used gradient elution (1 mL/min flow rate). We determined amount of substance in the sample in % after incubation.
We evaluated the stability of the compounds.

[3] = Stability in human blood plasma; details: 10 μM in pooled human blood plasma, incubated 4 hours at 37° C.
[4] = General cytotoxicity on HepG2 cells (CC50; therapeutic index CC50 HepG2/IC50 Mino); type: cell-based; details: human, HepG2 cells (hepatocellular carcinoma), 72 hours, Alamar Blue
How it was run: (§1)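 Cells seeded at 2*10^4 per well in DMEM, compounds added after 24 h at 200 μM to 4 μM final and incubated 72 h. Viability read with Alamar Blue to derive CC50; therapeutic index is CC50 (HepG2) divided by IC50 (Mino).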

[5] = system: HepG2 cells (hepatocellular carcinoma); assay: as above; type: cell-based; details: therapeutic index
How it was run: as §1

[6] = system: DOHH2 (follicular lymphoma); assay: Antiproliferative activity, DOHH2 cells (Alamar Blue); type: cell-based; details: Homo sapiens, DOHH-2, Table 10, 72 h, average of several tests
Experimental: Antiproliferative activity of BTK inhibitors was measured in cell-based bioassay on B-cells cultures: Mino (mantle cell lymphoma, ATCC® CRL-3000™), Z-138 (mantle cell lymphoma, ATCC® CRL-3001™) and DOHH2 (follicular lymphoma, Creative Bioarray CSC-C0219) using cell viability reagent Alamar Blue (Invitrogen, #DAL 1100). Cells were cultured in 10% FB S-supplemented (HyClone, #SH3008803/Gibco, #16140-071) RPMI-1640 (PanEco, #S330p) for at least 1 passage after thawing, washed with PBS and passaged in 96-well culture plates (Corning, #3599) with growth medium with 10% FBS (HyClone, #SH3008803/Gibco, #16140-071) and antibiotic (50 μg/ml of gentamicin (Biolot, #1.3.16))≈3*10^4 cells in 50 μl of medium per well.
The compounds were dissolved in DMSO and diluted with the assay medium to final concentrations ranging from […]. 150 μl of each diluted compound were then added to each well (final concentration of DMSO was less than 1%) and incubated at 37° C. in an incubator under 5% of CO2 for 72 h. After incubation, 20 μl of Alamar Blue reagent (Invitrogen, #DAL1100) were added to each well. The plates were shaked on an orbital shaker (Biosan, Latvia) and then incubated for 14-16 hours at 37° C. in the incubator.
The number of living cells were estimated, measuring the fluorescence signal at the excitation wavelength (REx) of 540 nm and the emission wavelength (λEm) of 590 nm on a microplate reader (Tecan Infinite M200Pro, Switzerland).
For each compound, IC50 was calculated using Magellan 7.2 software (Tecan, Switzerland) approximating experimental points by four-parameter logistic model with the optimization by Levenberg-Marquardt.

[7] = system: Z-138 (mantle cell lymphoma); assay: Antiproliferative activity, Z-138 cells (Alamar Blue); type: cell-based; details: Homo sapiens
How it was run: (§2)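 Cells grown in RPMI-1640 with 10% FBS and gentamicin, seeded ~3*10^4 cells/well, then exposed to compounds (DMSO <1% final) for 72 h at 37 °C, 5% CO2. Viability by Alamar Blue after 14-16 h, fluorescence Ex 540/Em 590 nm; IC50 from four-parameter logistic fit.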

[8] = system: Mino (mantle cell lymphoma); assay: Antiproliferative activity, Mino cells (Alamar Blue); type: cell-based; details: Homo sapiens
How it was run: as §2

[9] = Permeability through the monolayer of Caco-2 cells; type: in vitro ADME; details: human; for Papp A→B at 2 h, 10 μM / Papp B→A at 2 h, 10 μM: 2 h at 37° C.; for efflux ratio at 2 h, 10 μM: read-out: efflux (Papp B-A/Papp A-B)
Source text: Assessment of permeability through the monolayer of Caco-2 cells allows to evaluate the ability of the candidate compounds to penetrate through biological membranes by active and passive transport.
Caco-2, the cells of the intestinal epithelium, had been cultured in transwell plate inserts with the filters (with pores of 0.4 μm, BD Falcon with High Density, #353495) for 21 days, and then the integrity of the monolayer were estimated with Lucifer Yellow dye (Sigma-Aldrich, USA) by standard protocol. When setting the A→B transfer, solutions of test substances were added in a buffer with pH 6.5 (Hanks solution, 10 mM HEPES, 15 mM glucose solution) with the concentration of 10 μM into the upper chamber; the lower chamber was filled with a buffer with pH 7.4 (Hanks solution, 10 mM HEPES, 15 mM glucose solution, 1% BSA). When setting B→A transfer, the upper chamber was filled with the buffer with pH 6.5, and solutions of the test substances were added in the buffer with pH 7.4 at the concentration of 10 μM in the lower chamber. Propranolol was used as a control substance (as it has high permeability).
We used gradient elution (1 mL/min flow rate). We determined the areas of peaks corresponding to the compounds. On the basis of peak areas in the calibration standards we determined the concentration of compound in the initial solution and in the samples from the wells of the upper and lower chambers.
Papp, permeability through the cell layer, was calculated using the following formula:
Papp=(C(t)*V)/(C(0)*t*Area), where
Papp is the effective constant of permeability, m/s V is the volume of solution (0.8 ml in A→B test, 0.2 ml in B→A test), ml Area is the surface area of the membrane (0.33 cm^2), cm^2 t is the time of incubation (7200 sec), sec C(0) is the concentration of the initial solution, μM C(t) is the concentration of the solution after 2 hours (the concentration in the sample from the well of the lower chamber in A→B test; the concentration in the sample from the well of the top chamber in B→A test), μM
The value was calculated with the following formula:
efflux=Papp B-A/Papp A-B, where
Papp A-B is the value of the permeability in the direct test (A→B); Papp B-A is the value of the permeability in the backward test in (B→A).

[10] = Table 8, ADP-Glo, read-out: IC50 kinase BTK
[11] = Table 10, average of several tests
[12] = Table 10, 72 h, average of several tests

T1 sequence (Q06187 whole entry): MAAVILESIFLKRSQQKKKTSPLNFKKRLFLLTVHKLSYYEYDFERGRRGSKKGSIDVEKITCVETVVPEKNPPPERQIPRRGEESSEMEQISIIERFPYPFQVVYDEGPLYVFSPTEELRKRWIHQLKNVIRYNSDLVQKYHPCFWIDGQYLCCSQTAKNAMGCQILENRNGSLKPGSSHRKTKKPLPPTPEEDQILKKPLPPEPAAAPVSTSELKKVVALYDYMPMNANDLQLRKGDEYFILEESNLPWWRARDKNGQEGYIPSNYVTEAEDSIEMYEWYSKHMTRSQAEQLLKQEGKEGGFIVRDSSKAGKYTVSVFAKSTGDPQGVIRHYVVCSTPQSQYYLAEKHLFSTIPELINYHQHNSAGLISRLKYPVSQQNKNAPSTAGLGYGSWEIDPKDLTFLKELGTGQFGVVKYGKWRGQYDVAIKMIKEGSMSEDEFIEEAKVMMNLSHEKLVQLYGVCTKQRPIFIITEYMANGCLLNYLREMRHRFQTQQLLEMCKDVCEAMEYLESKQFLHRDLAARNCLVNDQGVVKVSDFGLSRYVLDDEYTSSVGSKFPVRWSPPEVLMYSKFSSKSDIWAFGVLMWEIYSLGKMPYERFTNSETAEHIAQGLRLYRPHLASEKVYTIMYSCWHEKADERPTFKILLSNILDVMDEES

C=CC(=O)N1CCC[C@H](Cn2nc(-c3ccc(C(=O)Nc4ccccn4)cc3)c3cncc(Cl)c32)C1 [BCD-BTK-290, (S)-4-(1-((1-acryloylpiperidin-3-yl)methyl)-7-chloro-1H-pyrazolo[4,3-c]pyridin-3-yl)-N-(pyridin-2-yl)benzamide]
IC50 [1, 10]: 0.0196 µM | Amount of substance in the sample in % (chemical stability) [2]: 100% | Amount of substance in the sample, % (stability in human blood plasma) [3]: 100.0%

C=CC(=O)N1CCC[C@@H](n2nc(-c3ccc(C(=O)Nc4ncccc4F)cc3)c3cncc(Cl)c32)C1 [BCD-BTK-226, (R)-4-(1-(1-acryloylpiperidin-3-yl)-7-chloro-1H-pyrazolo[4,3-c]pyridin-3-yl)-N-(3-fluoropyridin-2-yl)benzamide]
CC50 at 72 h [4, 11]: 19 µM | CC50 (HepG2)/IC50 (Mino) ([5]; Table 10): 3.19 | IC50 [6]: 8.05 µM | IC50 [7, 12]: 7.24 µM | Amount of substance in the sample in % (chemical stability) [2]: 100% | IC50 [8, 12]: 5.97 µM | Papp A→B at 2 h, 10 μM [9]: 12.1 ×10⁻⁶ cm/s | Papp B→A at 2 h, 10 μM [9]: 5.5 ×10⁻⁶ cm/s | efflux ratio at 2 h, 10 μM [9]: 0.45 | Amount of substance in the sample, % (stability in human blood plasma) [3]: 84.5%

C=CC(=O)N1CCC[C@@H](n2nc(-c3ccc(C(=O)Nc4ccc(F)cn4)cc3)c3cncc(F)c32)C1 [BCD-BTK-244, (R)-4-(1-(1-acryloylpiperidin-3-yl)-7-fluoro-1H-pyrazolo[4,3-c]pyridin-3-yl)-N-(5-fluoropyridin-2-yl)benzamide]
IC50 [1, 10]: 0.0557 µM | Amount of substance in the sample in % (chemical stability) [2]: 100%

C=CC(=O)N1CCC[C@@H](n2nc(-c3ccc(C(=O)Nc4cccc(F)n4)cc3)c3c(N)ncc(Cl)c32)C1 [BCD-BTK-250, (R)-4-(1-(1-acryloylpiperidin-3-yl)-4-amino-7-chloro-1H-pyrazolo[4,3-c]pyridin-3-yl)-N-(6-fluoropyridin-2-yl)benzamide]
IC50 [1, 10]: 0.0153 µM | CC50 at 72 h [4, 11]: 12.2 µM | CC50 (HepG2)/IC50 (Mino) ([5]; Table 10): 5.13 | IC50 [7, 12]: 3.26 µM | IC50 [8, 12]: 2.38 µM

C=CC(=O)N1CCC[C@@H](n2nc(-c3ccc(Oc4ccncc4)cc3)c3cncc(C#N)c32)C1 [BCD-BTK-123, (R)-1-(1-acryloylpiperidin-3-yl)-3-(4(pyridin-4-yloxy)phenyl)-1H-pyrazolo[4,3-c]pyridin-7-carbonitrile]
IC50 ([1]; Table 11, BTK kinase, read-out: IC50 kinase): 1.51 µM | CC50 at 72 h ([4]; Table 11): 50.4 µM | CC50 (HepG2)/IC50 (Mino) ([5]; Table 11): 3.81 | IC50 ([7]; Table 11, 72 h): 28 µM | IC50 ([8]; Table 11, 72 h): 13.2 µM | Papp A→B at 2 h, 10 μM [9]: 14.8 ×10⁻⁶ cm/s | Papp B→A at 2 h, 10 μM [9]: 7.4 ×10⁻⁶ cm/s | efflux ratio at 2 h, 10 μM [9]: 0.5

C=CC(=O)N1CCC[C@@H](n2nc(-c3ccc(Oc4ccncc4)cc3)c3c(N)ncc(C(N)=O)c32)C1 [BCD-BTK-135, (R)-1-(1-acryloylpiperidin-3-yl)-4-amino-3-(4-(pyridin-4-yloxy)phenyl)-1H-pyrazolo[4,3-c]pyridin-7-carboxamide]
IC50 [1, 10]: 0.00628 µM

C=CC(=O)N1CCC[C@@H](n2nc(-c3ccc(Oc4ccncc4C#N)cc3)c3cncc(F)c32)C1 [BCD-BTK-217, (R)-4-(4-(1-(1-acryloylpiperidin-3-yl)-7-fluoro-1H-pyrazolo[4,3-c]pyridin-3-yl)phenoxy)nicotinonitrile]
CC50 at 72 h [4, 11]: 40.1 µM | CC50 (HepG2)/IC50 (Mino) ([5]; Table 10): 2.31 | IC50 [6]: 16.1 µM | IC50 [7, 12]: 13.9 µM | IC50 [8, 12]: 17.4 µM | Papp A→B at 2 h, 10 μM [9]: 37.3 ×10⁻⁶ cm/s | Papp B→A at 2 h, 10 μM [9]: 18.9 ×10⁻⁶ cm/s | efflux ratio at 2 h, 10 μM [9]: 0.51 | Amount of substance in the sample, % (stability in human blood plasma) [3]: 90.8%

C=CC(=O)N1CC[C@H](n2nc(-c3ccc(C(=O)Nc4ccccn4)cc3)c3cncc(Cl)c32)C1 [BCD-BTK-273, (S)-4-(1-(1-acryloylpyrrolidin-3-yl)-7-chloro-1H-pyrazolo[4,3-c]pyridin-3-yl)-N-(pyridin-2-yl)benzamide]
IC50 [1, 10]: 0.0261 µM | Amount of substance in the sample in % (chemical stability) [2]: 100%

C=CC(=O)N1CCC[C@@H](n2nc(-c3ccc(Oc4cncc(C(N)=O)c4)cc3)c3cncc(Cl)c32)C1 [BCD-BTK-222, 5-(4-{7-chloro-1-[(3R)-1-(prop-2-enoyl)piperidin-3-yl]-1H-pyrazolo[4,3-c]pyridin-3-yl}phenoxy)pyridine-3-carboxamide]
CC50 at 72 h [4, 11]: 50.2 µM | CC50 (HepG2)/IC50 (Mino) ([5]; Table 10): 2.60 | IC50 [6]: 26.3 µM | IC50 [7, 12]: 26.3 µM | Amount of substance in the sample in % (chemical stability) [2]: 100% | IC50 [8, 12]: 19.4 µM | Papp A→B at 2 h, 10 μM [9]: 5.06 ×10⁻⁶ cm/s | Papp B→A at 2 h, 10 μM [9]: 6.97 ×10⁻⁶ cm/s | efflux ratio at 2 h, 10 μM [9]: 1.38 | Amount of substance in the sample, % (stability in human blood plasma) [3]: 100.0%

C=CC(=O)N1CCC[C@@H](n2nc(-c3ccc(C(=O)Nc4ccccn4)cc3)c3cncc(F)c32)C1 [BCD-BTK-243, (R)-4-(1-(1-acryloylpiperidin-3-yl)-7-fluoro-1H-pyrazolo[4,3-c]pyridin-3-yl)-N-(pyridin-2-yl)benzamide]
IC50 [1, 10]: 0.0293 µM | Amount of substance in the sample in % (chemical stability) [2]: 99.6%

C=CC(=O)N1CCC[C@@H](n2nc(-c3ccc(C(=O)Nc4cc(C(F)(F)CCC)ccn4)cc3)c3c(N)ncc(Cl)c32)C1 [BCD-BTK-254, (R)-4-(1-(1-acryloylpiperidin-3-yl)-4-amino-7-chloro-1H-pyrazolo[4,3-c]pyridin-3-yl)-N-(4-(1,1-difluorobutyl)pyridin-2-yl)benzamide]
IC50 [1, 10]: 0.0112 µM | CC50 at 72 h [4, 11]: 12.3 µM | CC50 (HepG2)/IC50 (Mino) ([5]; Table 10): 4.18 | IC50 [7, 12]: 6.65 µM | IC50 [8, 12]: 2.95 µM
